Measurements: patent publication US6368788B1 (priority 1987, dated 2002)
Where two headings read alike, the source gives them in different places.

Key:
[1] = tested on: acute respiratory infections; test: Prophylaxis of respiratory infection in athletes in training, intranasal L-Glu-L-Trp; type: in vivo, human
[2] = tested on: antibiotic-resistant Staphylococci; test: Chronic skin diseases caused by antibiotic-resistant Staphylococci (Protocol A2); type: in vivo, human
Adult thymectomy = test: Adult thymectomy; set-up: species or system human; conditions: in vivo
Procedure: A total of 12 thymectomized patients were treated with L-Glu-L-Trp. Prior to therapy, these individuals had experienced frequent serious infections including upper respiratory infections. L-Glu-L-Trp was administered in a single dose of 100 μg daily for 10 days and repeated every 4-6 months.

[3] = Following Stage 2, Abscess and indurative acne
[4] = Following Stage 2, Chronic abscess pyoderma
[5] = Following Stage 2, Papular-pustular acne

With L-Glu-L-Trp the “T-Lymphocytes (%)” value ([1]; Controls, After L-Glu-L-Trp) was 73.9 ± 1.7%, the “T-helper (CD4+)” value ([1]; Controls, After L-Glu-L-Trp) was 1.36 ± 0.2 ×10^9/L and the “T-helper (CD4+), %” value ([1]; Controls, After L-Glu-L-Trp) was 65.6 ± 2.0 %. The “T-helper (CD4+), % Normal Value” ([1]; Controls, After L-Glu-L-Trp) was “(136%)”, the “T-suppressor (CD8+)” value ([1]; Controls, After L-Glu-L-Trp) was 0.08 ± 0.05 ×10^9/L and the “T-suppressor (CD8+), %” value ([1]; Controls, After L-Glu-L-Trp) was 4.8 ± 1.0%. For the same substance, the “T-suppressor (CD8+), % Normal Value” ([1]; Controls, After L-Glu-L-Trp) was “(100%)”, the “Total Salivary IgA” value ([1]; Controls, After L-Glu-L-Trp) was 0.48 ± 0.1 g/L and the Incidence of infection ([1]; athletes treated, two month period) was 24.7%. For the same substance, the “Reduction of the rate of upper respiratory infections and illness” value ([1]; vs controls) was 4 fold, the “Blast Transformation, Con-A” value (Staphylococci; After L-Glu-L-Trp Therapy) was 58.3 ± 3.9% and the “Blast Transformation, HSA” value (Staphylococci; After L-Glu-L-Trp Therapy) was 84.9 ± 5.5%. For the same substance, the “Blast Transformation, PHA” value (Staphylococci; After L-Glu-L-Trp Therapy) was 40.2 ± 3.9%, the “Number of Patients with Clinical Result: Improved” value (Staphylococci; [3]) was 1 and the “Number of Patients with Clinical Result: Recovered” value (shortened to “Number of Patients … Recovered”) (Staphylococci; [3]) was 4. The “Number of Patients with Clinical Result: Significantly Improved” value (“Number of Patients … Significantly Improved” below) (Staphylococci; [3]) was 1, the “Number of Patients … Recovered” value (Staphylococci; [4]) was 5 and the “Number of Patients … Significantly Improved” value (Staphylococci; [4]) was 2. The “Number of Patients … Recovered” value (Staphylococci; Following Stage 2, Chronic furunculitis) was 10, the “Number of Patients … Recovered” value (Staphylococci; Following Stage 2, Chronic relapsing folliculitis gravis) was 1 and the “Number of Patients … Recovered” value (Staphylococci; Following Stage 2, Chronic relapsing osteofolliculitis) was 3. The “Number of Patients … Significantly Improved” value (Staphylococci; Following Stage 2, Chronic ulcerative pyoderma) was 2, the “Number of Patients … Recovered” value (Staphylococci; [5]) was 4 and the “Number of Patients … Significantly Improved” value (Staphylococci; [5]) was 3. The “Number of Patients with Clinical Result: Improved” value (Staphylococci; Following Stage 2, Totals) was 1, the “Number of Patients with Clinical Result: No Effect” value (Staphylococci; Following Stage 2, Totals) was 0 and the “Number of Patients … Recovered” value (Staphylococci; Following Stage 2, Totals) was 27. For the same substance, the “Number of Patients … Significantly Improved” value (Staphylococci; Following Stage 2, Totals) was 8, the “Number of Patients with Clinical Result: Worse” value (Staphylococci; Following Stage 2, Totals) was 0 and the B-Lymphocytes (Staphylococci; L-Glu-L-Trp Treatment (n = 36)) was 0.28 ± 0.04 ×10^9/L. The “B-Lymphocytes % Normal Value” (Staphylococci; L-Glu-L-Trp Treatment (n = 36)) was “(57%)”, the “B-Lymphocytes (%)” value (Staphylococci; L-Glu-L-Trp Treatment (n = 36)) was 12.1 ± 1.5% and the C3 (Staphylococci; L-Glu-L-Trp Treatment (n = 36)) was 0.77 ± 0.02 g/L. For the same substance, the “C3, % Normal Value” (Staphylococci; L-Glu-L-Trp Treatment (n = 36)) was “(92%)”, the “Erythrocyte Sed. Rate” value (Staphylococci; L-Glu-L-Trp Treatment (n = 36)) was 1.2 ± 1.4 mm and the IgA (Staphylococci; L-Glu-L-Trp Treatment (n = 36)) was 2.40 ± 0.18 g/L. The “IgA % Normal Value” (Staphylococci; L-Glu-L-Trp Treatment (n = 36)) was “(126%)”, the IgG (Staphylococci; L-Glu-L-Trp Treatment (n = 36)) was 15.5 ± 0.73 g/L and the “IgG % Normal Value” (Staphylococci; L-Glu-L-Trp Treatment (n = 36)) was “(135%)”. For the same substance, the IgM (Staphylococci; L-Glu-L-Trp Treatment (n = 36)) was 1.25 ± 0.12 g/L, the “IgM % Normal Value” (Staphylococci; L-Glu-L-Trp Treatment (n = 36)) was “(109%)” and the “Imm. Cmplx.” value (Staphylococci; L-Glu-L-Trp Treatment (n = 36)) was 45.9 ± 4.9 Units. For the same substance, the Leukocytes (Staphylococci; L-Glu-L-Trp Treatment (n = 36)) was 7.75 ± 0.33 ×10^9/L, the “Leukocytes % Normal Value” (Staphylococci; L-Glu-L-Trp Treatment (n = 36)) was “(115%)” and the Lymphocytes (Staphylococci; L-Glu-L-Trp Treatment (n = 36)) was 2.41 ± 0.14 ×10^9/L. For the same substance, the “Lymphocytes % Normal Value” (Staphylococci; L-Glu-L-Trp Treatment (n = 36)) was “(120%)”, the “Lymphocytes, %” value (Staphylococci; L-Glu-L-Trp Treatment (n = 36)) was 30.8 ± 1.4% and the Monocytes (Staphylococci; L-Glu-L-Trp Treatment (n = 36)) was 0.43 ± 0.04 ×10^9/L. For the same substance, the “Monocytes, %” value (Staphylococci; L-Glu-L-Trp Treatment (n = 36)) was 5.65 ± 0.40%, the “Monocytes, % Normal Value” (Staphylococci; L-Glu-L-Trp Treatment (n = 36)) was “(78%)” and the “NK activity” value (Staphylococci; L-Glu-L-Trp Treatment (n = 36)) was 45.18 ± 2.55 % cytotox. The Neutrophils (Staphylococci; L-Glu-L-Trp Treatment (n = 36)) was 4.54 ± 0.25 10^9/L, the “Neutrophils, %” value (Staphylococci; L-Glu-L-Trp Treatment (n = 36)) was 59.8 ± 1.5% and the “Neutrophils, % Normal Value” (Staphylococci; L-Glu-L-Trp Treatment (n = 36)) was “(103%)”. The “Phag. Index” value (Staphylococci; L-Glu-L-Trp Treatment (n = 36)) was 5.31 ± 0.20, the “Phagocytic Cells” value (Staphylococci; L-Glu-L-Trp Treatment (n = 36)) was 2.36 ± 0.27 ×10^9/L and the “Phagocytic Cells, % Normal Value” (Staphylococci; L-Glu-L-Trp Treatment (n = 36)) was “(89%)”. For the same substance, the “Surface Ig + B-Lym” value (Staphylococci; L-Glu-L-Trp Treatment (n = 36)) was 0.34 ± 0.05 ×10^9/L, the “Surface Ig + B-Lym, %” value (Staphylococci; L-Glu-L-Trp Treatment (n = 36)) was 16.9 ± 1.7% and the “Surface Ig + B-Lym, % Normal Value” (Staphylococci; L-Glu-L-Trp Treatment (n = 36)) was “(117%)”. For the same substance, the “T4^+/T8^+ Ratio” value (Staphylococci; L-Glu-L-Trp Treatment (n = 36)) was 1.32 ± 0.11, the T-Lymphocytes (Staphylococci; L-Glu-L-Trp Treatment (n = 36)) was 1.68 ± 0.12 ×10^9/L and the “T-Lymphocytes % Normal Value” (Staphylococci; L-Glu-L-Trp Treatment (n = 36)) was “(99%)”. For the same substance, the “T-Lymphocytes (%)” value (Staphylococci; L-Glu-L-Trp Treatment (n = 36)) was 69.3 ± 1.9 %, the “T-helper % Normal Value” (Staphylococci; L-Glu-L-Trp Treatment (n = 36)) was “(71%)” and the “T-helper (OKT4+)” value (Staphylococci; L-Glu-L-Trp Treatment (n = 36)) was 0.46 ± 0.05 ×10^9/L. For the same substance, the “T-helper (OKT4+) %” value (Staphylococci; L-Glu-L-Trp Treatment (n = 36)) was 20.3 ± 2.9%, the “T-suppressor % Normal Value” (Staphylococci; L-Glu-L-Trp Treatment (n = 36)) was “(95%)” and the “T-suppressor (OKT8+)” value (Staphylococci; L-Glu-L-Trp Treatment (n = 36)) was 0.39 ± 0.04 ×10^9/L. The “T-suppressor (OKT8+) %” value (Staphylococci; L-Glu-L-Trp Treatment (n = 36)) was 17.1 ± 1.9%, the “T-lymphocytes, T4+ lymphocytes, T4+/T8+ ratio and NK activity relative to normal healthy volunteers” value (Staphylococci; after treatment) was > 70% and the “Patients with considerable (significant) improvement” value (Staphylococci; combination therapy) was 8. For the same substance, the Patients with improvement (Staphylococci; combination therapy) was 1, the “Patients with clinical (complete) recovery” value (Staphylococci; combination therapy, 36 patients) was 27 and the “Surface IgG+ lymphocytes” value (Staphylococci; following Stage 2) was 0.19±0.023 ×10^9/L. For the same substance, the “Patients with clinically manifested increased antibiotic sensitivity in vivo” value (Staphylococci; in vivo) was 55-75%, the “Clinical recovery, papulous pustular acne” value (Staphylococci; of 7 patients) was 4 and the “Complete clinical recovery, chronic abscessing pyoderma” value (Staphylococci; of 7 patients) was 5. For the same substance, the “Clinical recovery, abscessing and indurative acne” value (Staphylococci; of 10 patients) was 6, the Clinical outcome ([2]; L-Glu-L-Trp then individualized antibiotic) was “complete recovery in all patients” and the “Increase in antibiotic-sensitivity of the patients' Staphylococci” value ([2]; patients with secondary T-immunodeficiency) was “more than 100 fold”. The Clinical outcome (Adult thymectomy) was “reduction of infectious disorders”.
